Measured values as given in ChEMBL document CHEMBL2016558, “CB 1/2 dual agonists with 3-carbamoyl 2-pyridone derivatives as antipruritics: reduction of CNS side effects by introducing polar functional groups” (Bioorg Med Chem Lett, 2012).

How the values were obtained:
Mus musculus [1] = test: Toxicity in ICR mouse assessed as CB1-mediated moving sluggishly at 0.1 to 1 mg/kg, iv after 15 mins; type: organism-based; design: dose 0.1-1 mg/kg, route intravenous; conditions: in vivo, 0.25 h
Mus musculus [2] = test: Toxicity in ICR mouse assessed as CB1-mediated spasm, rigor at 0.1 to 1 mg/kg, iv after 15 mins; type: organism-based; design: dose 0.1-1 mg/kg, route intravenous; conditions: in vivo, 0.25 h
Mus musculus [3] = test: Toxicity in ICR mouse assessed as CB1-mediated stretching the without moving at 0.1 to 1 mg/kg, iv after 15 mins; type: organism-based; design: dose 0.1-1 mg/kg, route intravenous; conditions: in vivo, 0.25 h
Mus musculus [4] = test: Toxicity in ICR mouse assessed as CB1-mediated walking with lying on the belly at 0.1 to 1 mg/kg, iv after 15 mins; type: organism-based; design: dose 0.1-1 mg/kg, route intravenous; conditions: in vivo, 0.25 h
Mus musculus [5] = test: Toxicity in ICR mouse assessed as CB1-induced catalepsy at 0.1 to 1 mg/kg, iv after 15 mins; type: organism-based; design: dose 0.1-1 mg/kg, route intravenous; conditions: in vivo, 0.25 h
Cannabinoid receptor 1 = Cannabinoid receptor 1 (Homo sapiens, UniProt P21554); test: Displacement of [3H]-CP55940 from recombinant human CB1 receptor by scatchard plot analysis
Cannabinoid receptor 2 = Cannabinoid receptor 2 (Homo sapiens, UniProt P34972); test: Displacement of [3H]-CP55940 from recombinant human CB2 receptor by scatchard plot analysis
Mus musculus [6] = test: Antipruritic activity in Crj:CD1 ICR mouse pruritic model assessed as inhibition of compound 48/80-induced scratching compound topically applied on the shaved back 15 mins prior challenge measured for 30 mins relative to control; type: functional
[7] = Ratio of drug level in brain to plasma in rat; type: ADME; conditions: read-out: BPR

Sequence of Cannabinoid receptor 1 (P21554 whole entry): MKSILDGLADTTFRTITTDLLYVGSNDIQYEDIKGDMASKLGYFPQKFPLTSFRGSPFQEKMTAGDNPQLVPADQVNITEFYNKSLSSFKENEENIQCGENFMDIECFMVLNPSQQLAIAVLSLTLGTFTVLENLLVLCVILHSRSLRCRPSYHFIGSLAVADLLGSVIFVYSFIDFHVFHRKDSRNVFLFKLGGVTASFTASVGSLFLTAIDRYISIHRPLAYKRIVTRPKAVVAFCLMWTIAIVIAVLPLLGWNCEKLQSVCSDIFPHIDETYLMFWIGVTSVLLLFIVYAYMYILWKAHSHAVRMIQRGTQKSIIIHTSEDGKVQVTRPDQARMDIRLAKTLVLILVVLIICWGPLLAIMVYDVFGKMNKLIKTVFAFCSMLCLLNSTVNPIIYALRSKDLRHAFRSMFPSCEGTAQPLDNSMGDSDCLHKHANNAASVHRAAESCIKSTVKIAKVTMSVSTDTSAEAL
Sequence of Cannabinoid receptor 2 (P34972 whole entry): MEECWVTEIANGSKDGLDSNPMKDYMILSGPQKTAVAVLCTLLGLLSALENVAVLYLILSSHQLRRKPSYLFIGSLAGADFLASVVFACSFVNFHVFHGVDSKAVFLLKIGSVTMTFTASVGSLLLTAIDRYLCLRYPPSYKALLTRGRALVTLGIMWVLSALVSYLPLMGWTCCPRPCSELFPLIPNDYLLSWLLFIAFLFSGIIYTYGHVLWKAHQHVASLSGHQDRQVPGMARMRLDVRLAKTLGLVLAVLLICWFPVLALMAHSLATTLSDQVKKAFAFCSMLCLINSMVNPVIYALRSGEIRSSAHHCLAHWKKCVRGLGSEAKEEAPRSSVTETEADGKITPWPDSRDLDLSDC

SMILES | Activity (Mus musculus [1]) | Activity (Mus musculus [2]) | Activity (Mus musculus [3]) | Activity (Mus musculus [4]) | Activity (Mus musculus [5]) | Ki (Cannabinoid receptor 1) | Ki (Cannabinoid receptor 2) | inhibition (INH) (Mus musculus [6]) | Kp [7]
CC(C)(NC(=O)c1cc2c(n(CC3CCCCC3)c1=O)CCCCCC2)C(=O)N1CCC(C(N)=O)CC1 | Toxic | Toxic | Toxic | Toxic | Toxic | 4.9 nM | 3 nM |  | 
CC(C)(NC(=O)c1cc2c(n(CC3CCCCC3)c1=O)CCCCCC2)C(=O)N1CCC(O)CC1 | Toxic | Toxic | Toxic | Toxic | Toxic | 8 nM | 1.1 nM |  | 
CN(C)CCNC(=O)C(C)(C)NC(=O)c1cc2c(n(CC3CCCCC3)c1=O)CCCCCC2 |  |  |  |  |  | 242 nM | 81 nM |  | 
CC(C)(NC(=O)c1cc2c(n(CC3CCCCC3)c1=O)CCCCCC2)C(=O)NCCOCCO | Toxic | Toxic | Toxic | Toxic | Toxic | 3.4 nM | 0.6 nM |  | 
CC(C)(NC(=O)c1cc2c(n(CC3CCCCC3)c1=O)CCCCCC2)C(=O)N1CCC(C(=O)O)CC1 |  |  |  |  |  | 2970 nM | 377 nM |  | 
CC(=O)NCCNC(=O)C(C)(C)NC(=O)c1cc2c(n(CC3CCCCC3)c1=O)CCCCCC2 | Toxic | Toxic | Toxic | Toxic | Toxic | 4.7 nM | 2.5 nM |  | 
CC(C)(NC(=O)c1cc2c(n(CC3CCCCC3)c1=O)CCCCCC2)C(=O)NNS(C)(=O)=O | Non-toxic | Non-toxic | Non-toxic | Non-toxic | Non-toxic | 32 nM | 7.3 nM | 87% | 0.02
COC(=O)C(C)(C)NC(=O)c1cc2c(n(CC3CCCCC3)c1=O)CCCCCC2 | Toxic | Toxic | Toxic | Toxic | Toxic | 1.7 nM | 0.3 nM |  | 3.35
CC(C)(NC(=O)c1cc2c(n(CC3CCCCC3)c1=O)CCCCCC2)C(=O)NCC(N)=O | Toxic | Toxic | Toxic | Toxic | Toxic |  |  |  | 
CC(C)(NC(=O)c1cc2c(n(CC3CCCCC3)c1=O)CCCCCC2)C(=O)NCC(=O)O |  |  |  |  |  | > 5000 nM | 2820 nM |  | 
CC(C)(NC(=O)c1cc2c(n(CC3CCCCC3)c1=O)CCCCCC2)C(=O)N1CCC(C(=O)NS(C)(=O)=O)CC1 |  |  |  |  |  | 218 nM | 128 nM |  | 
CN(CCO)C(=O)C(C)(C)NC(=O)c1cc2c(n(CC3CCCCC3)c1=O)CCCCCC2 | Toxic | Toxic | Toxic | Toxic | Toxic |  | 0.6 nM |  | 0.28
CC(C)(NC(=O)c1cc2c(n(CC3CCCCC3)c1=O)CCCCCC2)C(=O)NCCCO | Toxic | Toxic | Toxic | Toxic | Toxic | 6.3 nM | 1 nM |  | 
CC(C)(NC(=O)c1cc2c(n(CC3CCCCC3)c1=O)CCCCCC2)C(=O)N1CCC(NS(C)(=O)=O)CC1 | Non-toxic | Non-toxic | Non-toxic | Non-toxic | Non-toxic |  |  |  | 
CC(C)(NC(=O)c1cc2c(n(CC3CCCCC3)c1=O)CCCCCC2)C(=O)NN | Toxic | Toxic | Toxic | Toxic | Toxic | 30 nM | 2.8 nM |  | 
CC(C)(NC(=O)c1cc2c(n(CC3CCCCC3)c1=O)CCCCCC2)C(=O)NCCCCCO | Toxic | Toxic | Toxic | Toxic | Toxic | 5.8 nM | 1.2 nM |  | 
